# In patent US20100015225A1, “SOLID DISPERSION OF A NEUROKININ ANTAGONIST” (priority 2006, published 2010):
# Experiment: Super-saturation studies: in-vitro dissolution in different media (SGF, FaSSIF, FeSSIF, buffer pH 7)
# Assay type: physicochemical
# Conditions: ~4 mg/ml = 100% release
# Text: The in-vitro dissolution of the HPMC-based solid dispersion 1B (Component 1B) and that of the enteric HPMC-P based solid dispersion 2D (Component 2D) were studied in different media and compared to the crystalline-hemihydrate or the amorphous compound A.
"Concentration of Compound A (FaSSIF, 10 min)","Concentration of Compound A (FaSSIF, 30 min)","Concentration of Compound A (FaSSIF, 60 min)","Concentration of Compound A (FaSSIF, 180 min)","Concentration of Compound A (FeSSIF, 10 min)","Concentration of Compound A (FeSSIF, 30 min)","Concentration of Compound A (FeSSIF, 60 min)","Concentration of Compound A (FeSSIF, 180 min)","Concentration of Compound A (SGF, 10 min)","Concentration of Compound A (SGF, 30 min)","Concentration of Compound A (SGF, 60 min)","Concentration of Compound A (SGF, 180 min)",Compound
102 µg/mL,63 µg/mL,9 µg/mL,0 µg/mL,531 µg/mL,575 µg/mL,48 µg/mL,49 µg/mL,491 µg/mL,0 µg/mL,0 µg/mL,0 µg/mL,"CN(C(=O)c1cc(C(F)(F)F)cc(C(F)(F)F)c1)[C@@H](/C=C/C(=O)N[C@@H]1CCCCNC1=O)Cc1ccc(Cl)c(Cl)c1 [A-amorphous, (4R)-4-[N′-methyl-N′-(3,5-bistrifluoromethyl-benzoyl)-amino]-4-(3,4-dichlorobenzyl)-but-2-enoic acid N—[(R)-epsilon-caprolactam-3-yl]-amide]"
0 µg/mL,0 µg/mL,0 µg/mL,0 µg/mL,62 µg/mL,54 µg/mL,56 µg/mL,44 µg/mL,0 µg/mL,0 µg/mL,0 µg/mL,0 µg/mL,"CN(C(=O)c1cc(C(F)(F)F)cc(C(F)(F)F)c1)[C@@H](/C=C/C(=O)N[C@@H]1CCCCNC1=O)Cc1ccc(Cl)c(Cl)c1 [Compd A crystalline (hemihydrate), (4R)-4-[N′-methyl-N′-(3,5-bistrifluoro-methyl-benzoyl)-amino]-4-(3,4-dichlorobenzyl)-but-2-enoic acid N—[(R)-epsilon-caprolactam-3-yl]-amide semihydrate]"
